Data: patent publication US20120077852A1, “HYDROXYPYRIDINONES FOR THE LOCAL TREATMENT OF SKIN MICROCIRCULATORY DISORDERS” (priority 2002, published 2012)

How the values were obtained:
[1] = Kow distribution coefficient, partition between water and 1-octanol; assay type: physicochemical; conditions: distribution coefficient between water and 1-octanol of the hydroxypyridinone HCl addition salt, according Dubbin et al.
From the text: A key feature is the hydro-lipophilic property, which basically correlate with its distribution coefficients (“Kow”).

[2] = relative to deferoxamine; cited from earlier work
[3] = Berdoukas et al, Lancet 1993; cited from earlier work
[4] = Kamiyama et al 1981; cited from earlier work

Structure (SMILES)	Kow [1]	partition coefficient, times that of deferoxamine [2]	cellular uptake versus deferoxamine [3]	lipid peroxidation, hydroxyl radical production, free radical-mediated cell damage [4]
CCc1c(O)c(=O)ccn1CC [Example 12, 1,2-diethyl-3-hydroxy-4-pyridinone]	1.78	–	–	–
CCc1c(O)c(=O)ccn1C [Example 11, 1-methyl-2-ethyl-3-hydroxy-4-pyridinone]	0.63	–	–	–
Cc1c(O)c(=O)ccn1C [Example 1, 1,2-dimethyl-3-hydroxy-4-pyridinone]	0.17	21 times	significantly higher than that of deferoxamine	dramatically decrease
